According to BindingDB's records for doi:10.1021/jm950589q (Ibm Thomas J. Watson Research Center, 1996):

Experiment: Inhibitory concentration against HIV-1 replication by interfering with virus reverse transcriptase

Row | Structure (SMILES) | IC50
1 | CC(C)=CCN1Cc2cc(Cl)cc3[nH]c(=S)n(c23)C[C@@H]1C | 43 nM
2 | CC1Cn2c(=S)[nH]c3cccc(c32)CN1CC1CC1 (centres undefined) | 60 nM
3 | CC(C)=CCN1Cc2cc(Cl)cc3[nH]c(=O)n(c23)CC1C (centres undefined) | 180 nM
4 | CC(C)=CCN1Cc2cccc3[nH]c(=O)n(c23)CC1C (centres undefined) | 3320 nM
5 | C=C(C)CN1Cc2cc(Cl)cc3[nH]c(=S)n(c23)C(C)C1 (centres undefined) [4-Chloro-9-methyl-7-(2-methyl-allyl)-6,7,8,9-tetrahydro-2H-2,7,9a-triaza-benzo[cd]azulene-1-thione] | 670 nM
6 | CC(C)=CCN1CCn2c(=O)[nH]c3ccc(Cl)c(c32)C1C (centres undefined) [5-Chloro-6-methyl-7-(3-methyl-but-2-enyl)-6,7,8,9-tetrahydro-2H-2,7,9a-triaza-benzo[cd]azulen-1-one] | 145 nM
7 | CC(C)=CCN1CCn2c(=S)[nH]c3ccc(Cl)c(c32)C1C (centres undefined) [5-Chloro-6-methyl-7-(3-methyl-but-2-enyl)-6,7,8,9-tetrahydro-2H-2,7,9a-triaza-benzo[cd]azulene-1-thione] | 12 nM
8 | CC(C)=CCN1CCn2c(=S)[nH]c3ccc(Cl)c(c32)C1 [5-Chloro-7-(3-methyl-but-2-enyl)-6,7,8,9-tetrahydro-2H-2,7,9a-triaza-benzo[cd]azulene-1-thione] | 46 nM
9 | CC(C)=CCN1Cc2c(Cl)ccc3[nH]c(=S)n(c23)C[C@@H]1C [5-Chloro-8-methyl-7-(3-methyl-but-2-enyl)-6,7,8,9-tetrahydro-2H-2,7,9a-triaza-benzo[cd]azulene-1-thione] | 5 nM
10 | CC(C)=CCN1CCn2c(=O)[nH]c3cccc(c32)C1C (centres undefined) [6-Methyl-7-(3-methyl-but-2-enyl)-6,7,8,9-tetrahydro-2H-2,7,9a-triaza-benzo[cd]azulen-1-one] | 12100 nM
11 | C=C(C)CN1Cc2cccc3[nH]c(=O)n(c23)C(CCC)C1 (centres undefined) [7-(2-Methyl-allyl)-9-propyl-6,7,8,9-tetrahydro-2H-2,7,9a-triaza-benzo[cd]azulen-1-one] | 48100 nM
12 | CC(C)=CCN1Cc2cccc3[nH]c(=S)n(c23)C(C)C1C (centres undefined) [8,9-Dimethyl-7-(3-methyl-but-2-enyl)-6,7,8,9-tetrahydro-2H-2,7,9a-triaza-benzo[cd]azulene-1-thione] | 2220 nM
13 | CC(C)=CCN1[C@H](C)Cn2c(=O)[nH]c3cc(Cl)cc(c32)[C@@H]1C [(6S,8R)-4-Chloro-6,8-dimethyl-7-(3-methyl-but-2-enyl)-6,7,8,9-tetrahydro-2H-2,7,9a-triaza-benzo[cd]azulen-1-one] | 230 nM
14 | CC(C)=CCN1Cc2cccc3[nH]c(=S)n(c23)C[C@@H]1C [(11S)-11-methyl-10-(3-methylbut-2-en-1-yl)-1,3,10-triazatricyclo[6.4.1.0^{4,13}]trideca-4(13),5,7-triene-2-thione] | 97 nM

Other lines, results leading:

Row | IC50 | Structure (SMILES)
15 | 26 nM | C=C(C)CN1Cc2cccc3[nH]c(=S)n(c23)CC1C (centres undefined)
16 | 34700 nM | C=C(C)CN1Cc2cccc3[nH]c(=O)n(c23)CC1C (centres undefined)
17 | 160 nM | CC(C)=CCN1CCn2c(=O)[nH]c3cc(Cl)cc(c32)C1C (centres undefined) [4-Chloro-6-methyl-7-(3-methyl-but-2-enyl)-6,7,8,9-tetrahydro-2H-2,7,9a-triaza-benzo[cd]azulen-1-one]
18 | 23 nM | CC(C)=CCN1CCn2c(=S)[nH]c3cc(Cl)cc(c32)C1C (centres undefined) [4-Chloro-6-methyl-7-(3-methyl-but-2-enyl)-6,7,8,9-tetrahydro-2H-2,7,9a-triaza-benzo[cd]azulene-1-thione]
19 | 160 nM | CC(C)=CCN1CCn2c(=S)[nH]c3cc(Cl)cc(c32)C1 [4-Chloro-7-(3-methyl-but-2-enyl)-6,7,8,9-tetrahydro-2H-2,7,9a-triaza-benzo[cd]azulene-1-thione]
20 | 34 nM | CC1Cn2c(=S)[nH]c3cc(Cl)cc(c32)CN1CC1CC1 (centres undefined) [4-Chloro-7-cyclopropylmethyl-8-methyl-6,7,8,9-tetrahydro-2H-2,7,9a-triaza-benzo[cd]azulene-1-thione]
21 | 25800 nM | CC(C)=CCN1CC(C)n2c(=S)[nH]c3cccc(c32)C1C (centres undefined) [6,9-Dimethyl-7-(3-methyl-but-2-enyl)-6,7,8,9-tetrahydro-2H-2,7,9a-triaza-benzo[cd]azulene-1-thione]
22 | 78 nM | CC(C)=CCN1CCn2c(=S)[nH]c3cccc(c32)C1C (centres undefined) [6-Methyl-7-(3-methyl-but-2-enyl)-6,7,8,9-tetrahydro-2H-2,7,9a-triaza-benzo[cd]azulene-1-thione]
23 | 13400 nM | CC1C(C)n2c(=S)[nH]c3cccc(c32)CN1CC1CC1 (centres undefined) [7-Cyclopropylmethyl-8,9-dimethyl-6,7,8,9-tetrahydro-2H-2,7,9a-triaza-benzo[cd]azulene-1-thione]
24 | 56700 nM | CC(C)=CCN1Cc2cccc3[nH]c(=O)n(c23)C(C)C1C (centres undefined) [8,9-Dimethyl-7-(3-methyl-but-2-enyl)-6,7,8,9-tetrahydro-2H-2,7,9a-triaza-benzo[cd]azulen-1-one]
25 | 12600 nM | C=C(C)CN1Cc2cccc3[nH]c(=O)n(c23)C(C(C)C)C1 (centres undefined) [9-Isopropyl-7-(2-methyl-allyl)-6,7,8,9-tetrahydro-2H-2,7,9a-triaza-benzo[cd]azulen-1-one]
26 | 32100 nM | C=C(C)CN1Cc2cccc3[nH]c(=O)n(c23)C(C)C1 (centres undefined) [9-Methyl-7-(2-methyl-allyl)-6,7,8,9-tetrahydro-2H-2,7,9a-triaza-benzo[cd]azulen-1-one]
27 | 42 nM | CC(C)=CCN1[C@H](C)Cn2c(=S)[nH]c3cccc(c32)[C@H]1C [(6R,8R)-6,8-Dimethyl-7-(3-methyl-but-2-enyl)-6,7,8,9-tetrahydro-2H-2,7,9a-triaza-benzo[cd]azulene-1-thione]
28 | 480 nM | CC(C)=CCN1[C@H](C)Cn2c(=S)[nH]c3cc(Cl)cc(c32)[C@@H]1C [(6S,8R)-4-Chloro-6,8-dimethyl-7-(3-methyl-but-2-enyl)-6,7,8,9-tetrahydro-2H-2,7,9a-triaza-benzo[cd]azulene-1-thione]
29 | 1150 nM | CC(C)=CCN1[C@H](C)Cn2c(=S)[nH]c3cccc(c32)[C@@H]1C [(6S,8R)-6,8-Dimethyl-7-(3-methyl-but-2-enyl)-6,7,8,9-tetrahydro-2H-2,7,9a-triaza-benzo[cd]azulene-1-thione]
